Entries after “also recorded” stand apart in the source; their conditions may differ. Square brackets hold non-standard residues; d marks the D form. Ends that are not written are not given here. Oic = O=C(O)[C@@H]1C[C@@H]2CCCC[C@@H]2N1; Tic = O=C(O)[C@@H]1Cc2ccccc2CN1
Legend:
[1] = target: T1, GzmA in intact NK‐92 cells (Homo sapiens, UniProt P12544); assay: Labeling of GzmA in intact NK-92 cells (in-gel fluorescence); type: cell-based; conditions: 2 h, 37 °C; for Labeling of GzmA in intact NK-92 cells: 1x10^6 NK-92 cells, lysis then in-gel fluorescence and GzmA western blot; for Cell permeability / cellular uptake: intact NK-92 cells, judged from labeling in intact cells
T1 construct: host or cells: NK-92
T1 sequence (P12544 29-262): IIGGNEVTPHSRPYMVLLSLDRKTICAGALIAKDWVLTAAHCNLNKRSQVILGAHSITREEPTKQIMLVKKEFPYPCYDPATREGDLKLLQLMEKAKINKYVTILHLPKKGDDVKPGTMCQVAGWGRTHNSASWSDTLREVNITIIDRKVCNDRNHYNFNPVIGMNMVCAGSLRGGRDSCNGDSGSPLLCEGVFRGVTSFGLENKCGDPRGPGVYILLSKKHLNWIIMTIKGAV
Experimental: Figure 4 Characterization of qABPs in native proteomes. A) Labeling of GzmA by 5 and 6 in lysates of various cell lines (1 h, 37 °C). B) Stability of 5 and 6 in buffer and cell media (11 h, 37 °C). The hydrolysis of probes was measured by monitoring the production of Cy5 fluorescence signal over time. […] C) Labeling of GzmA by probes 3 –6 in NK‐92 cells (2 h, 37 °C). D) Flow cytometry analysis of protein labeling in NK‐92 cells by 3 –5. […] E) Flow cytometry analysis of concentration‐dependent GzmA labeling in NK‐92 cells and S/N of 5 (5 μM, 2 h, 37 °C). […] F) Flow cytometry analysis of protein labeling by 5 in MDA‐MB‐231 cells co‐cultured with NK‐92 cells (see Supporting Information for conditions). […] TEXT PRINTED IN THE PICTURE: (E) qABP 5: S/N = 4 […]
Final reaction volume was 20 µL. […]
Conditions for Figure 4C: Various concentrations of probes 3-6 were incubated with 1x10^6 NK-92 cells for 2 h at 37 °C in a humidified incubator. Cells were centrifuged, washed with PBS (x2) and lysed with ~40 µL of ice-cold RIPA buffer. Lysates were collected, protein concentration was measured with PIERCE BCA protein assay and samples were analyzed with in-gel fluorescence and GzmA western blotting.
D. Flow cytometry analysis […]
Conditions for Figure 4F: In a 6-well cell culture plate, 5x10^5 MDA-MB-231 cells were seeded and allowed to attach overnight. After confirming cell attachment under the microscope, media were removed and fresh media containing 2x10^6 NK-92 cells (or NK-92 culture media alone for control) were added along with simultaneous addition of qABP 5 (5 µM). Cells were co-cultured for the indicated times at 37 °C under 5% CO2 in a humidified atmosphere. […]
E. Synthesis of compounds
1H, 13C and 31P spectra were acquired on a 500 MHz NMR in CDCl3 or CD3OD at 25 °C. The 1H chemical shifts are given in parts per million (δ) with respect to an internal tetramethylsilane (TMS, δ 0.00 ppm) standard. NMR data are reported in the following format: chemical shifts (multiplicity (s = singlet, d = doublet, t = triplet, m = multiplet), coupling constants [Hz], integration). LCMS data were acquired on Agilent 1200 series LC/MS or Shimadzu Prominence-i LC-2030s instrument, whereas HRMS data were obtained on an Agilent Q-TOF LC/MS/MS instrument. All compounds are >95% pure by HPLC analysis.

[2] = target: T2, GzmK (Homo sapiens, UniProt P49863); assay: Cross-reactivity labeling, GzmK; type: biochemical; conditions: GzmK 100 nM, probe 10-100 nM, 2 h, 37 °C, in-gel fluorescence
T2 sequence (P49863 27-264): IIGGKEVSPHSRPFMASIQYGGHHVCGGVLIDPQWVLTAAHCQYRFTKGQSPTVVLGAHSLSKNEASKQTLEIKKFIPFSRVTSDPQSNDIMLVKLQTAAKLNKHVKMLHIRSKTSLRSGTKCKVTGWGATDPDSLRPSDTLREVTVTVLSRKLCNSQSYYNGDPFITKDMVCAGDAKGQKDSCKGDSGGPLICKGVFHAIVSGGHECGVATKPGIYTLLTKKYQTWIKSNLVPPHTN
Experimental: (§1) Protease (100 nM) HNE PR3 GzmK GzmA
(§2) Protease (100 nM) GzmA GzmK
(§3) Supplementary Figure 2. Cross-reactivity of probes. (A) Labeling of GzmA, GzmK, PR3, and HNE
(§4) (100 nM, 2 h, 37 °C) by 100 nM of 5 and 6. (B) Labeling of GzmA and GzmK (100 nM, 2 h, 37 °C) by
(§5) 100 nM of 3 – 6. (C) Concentration-dependent labeling of GzmA and GzmK (100 nM, 2 h, 37 °C) by 5 and
(§6) 6. Protein samples were analyzed by SDS-PAGE and in-gel fluorescence scanning for Cy5 signal.
(§7) Protein loading was confirmed by SYPRO Ruby staining. […]

[3] = target: T3, neutrophil elastase (NE) (Homo sapiens, UniProt P08246); assay: Cross-reactivity labeling, neutrophil elastase; type: biochemical; conditions: protease 100 nM, probe 100 nM, 2 h, 37 °C, in-gel fluorescence
T3 sequence (P08246 30-267): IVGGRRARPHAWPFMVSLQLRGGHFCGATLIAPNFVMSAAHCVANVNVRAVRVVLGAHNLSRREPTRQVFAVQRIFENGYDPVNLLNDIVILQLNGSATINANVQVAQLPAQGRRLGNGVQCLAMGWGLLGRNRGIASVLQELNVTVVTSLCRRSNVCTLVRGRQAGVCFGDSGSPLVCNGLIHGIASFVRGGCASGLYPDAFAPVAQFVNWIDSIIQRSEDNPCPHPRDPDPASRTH
Experimental: as §1, §2, §3, §4, §5, §6, §7

IGNR [compound 5]
Labeling of GzmA in intact NK-92 cells [1]: effectively labeled active GzmA in intact cells | Cell permeability / cellular uptake [1]: excellent cellular uptake | Labeling of GzmK (cross-reactivity) [2]: labeling was significantly weaker than for GzmA and required considerably higher probe concentrations | Labeling of NE (cross-reactivity) [3]: Neither probe 5 nor 6 showed detectable labeling

[Tic]G[Oic]R [compound 6]
Labeling of GzmA in intact NK-92 cells [1]: poor labeling | Cell permeability / cellular uptake [1]: limited cell permeability; also recorded: cell impermeable | Labeling of GzmK (cross-reactivity) [2]: labeling was significantly weaker than for GzmA and required considerably higher probe concentrations | Labeling of NE (cross-reactivity) [3]: Neither probe 5 nor 6 showed detectable labeling
